For the assay, the target named is T1, human ferroportin (Homo sapiens, UniProt Q9NP59).
T1 construct: luciferase reporter (read with the Nano-Glo Luciferase Assay System); expressed in transfected cells; host or cells: CHO cells, stably transfected, expression induced with doxycycline
T1 sequence (Q9NP59 1-571): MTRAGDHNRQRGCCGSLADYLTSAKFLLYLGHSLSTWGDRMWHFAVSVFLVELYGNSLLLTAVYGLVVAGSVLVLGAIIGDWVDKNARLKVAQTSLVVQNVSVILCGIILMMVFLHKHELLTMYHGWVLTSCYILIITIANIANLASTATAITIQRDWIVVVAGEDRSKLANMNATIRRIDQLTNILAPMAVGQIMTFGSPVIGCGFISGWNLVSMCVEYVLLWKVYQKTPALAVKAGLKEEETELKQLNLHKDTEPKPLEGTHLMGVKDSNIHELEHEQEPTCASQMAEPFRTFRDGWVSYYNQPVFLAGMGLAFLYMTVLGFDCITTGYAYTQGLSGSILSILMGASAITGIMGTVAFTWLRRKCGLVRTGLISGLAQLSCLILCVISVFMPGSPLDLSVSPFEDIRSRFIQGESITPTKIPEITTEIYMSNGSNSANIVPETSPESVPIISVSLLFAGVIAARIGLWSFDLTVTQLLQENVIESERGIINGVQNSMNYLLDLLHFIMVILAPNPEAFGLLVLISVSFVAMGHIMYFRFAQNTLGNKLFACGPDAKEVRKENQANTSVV
Description: Biological in-vitro ferroportin internalization assay (luciferase reporter). The assay is classed as cell-based. The settings on record: average pEC50; stably-transfected CHO cell line expressing human ferroportin tagged to a luciferase reporter; 6 h incubation with test compound. An outline of the steps: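 Read-out is Nano-Glo luciferase signal after 6 h compound exposure, with average pEC50 derived. Cells are a stable CHO line carrying luciferase-tagged human ferroportin, pre-loaded 24 h with ferric ammonium citrate and doxycycline-induced for 24 h.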
Background: In a reporter assay the amount or activity of a reporter protein is the signal.

The source of these data is patent US11746100B2 (GLOBAL BLOOD THERAPEUTICS, INC., priority 2020, dated 2023).

Consider `Cc1cc(OCC(C)(C)O)cc(-c2nc3c(c(N(C)CC(=O)NC(C)(C)C)n2)CCC3)n1` [Compound 440, N-tert-butyl-2-({2-[4-(2-hydroxy-2-methylpropoxy)-6-methylpyridin-2-yl]-5H,6H,7H-cyclopenta[d]pyrimidin-4-yl}(methyl)amino)acetamide], for which the pEC50 (as a rule, the negative decadic logarithm of the EC50, by convention in mol/L) is 8.

`CCNC(=O)CN(C)c1nc(-c2cc(OCC3(O)CC3)ccn2)nc2c1CCC2` [Compound 441, N-ethyl-2-[(2-{4-[(1-hydroxycyclopropyl)methoxy]pyridin-2-yl}-5H,6H,7H-cyclopenta[d]pyrimidin-4-yl)(methyl)amino]acetamide] yielded a pEC50 of 7.5.

As to `CCNC(=O)CN(C)c1nc(-c2cc(OCC(O)(CC)CC)ccn2)nc2c1CCC2` [Compound 442, N-ethyl-2-({2-[4-(2-ethyl-2-hydroxybutoxy)pyridin-2-yl]-5H,6H,7H-cyclopenta[d]pyrimidin-4-yl}(methyl)amino)acetamide], the pEC50 is 8.

`CCC(O)(CC)COc1ccnc(-c2nc3c(c(N(C)CC(=O)NC)n2)CCC3)c1` [Compound 443, 2-({2-[4-(2-ethyl-2-hydroxybutoxy)pyridin-2-yl]-5H,6H,7H-cyclopenta[d]pyrimidin-4-yl}(methyl)amino)-N-methylacetamide] returned a pEC50 of 7.8.

`CC(C)NC(=O)CN(C)c1nc(-c2cc(OCC3(O)CCOCC3)ccn2)nc2c1CCC2` [Compound 444, 2-[(2-{4-[(4-hydroxyoxan-4-yl)methoxy]pyridin-2-yl}-5H,6H,7H-cyclopenta[d]pyrimidin-4-yl)(methyl)amino]-N-(propan-2-yl)acetamide] registered a pEC50 of 7.9.

On to `CC[C@@](C)(O)COc1ccnc(-c2nc3c(c(N(C)CC(=O)NC(C)(C)C)n2)CCC3)c1` [Compound 445, N-tert-butyl-2-[(2-{4-[(2R)-2-hydroxy-2-methylbutoxy]pyridin-2-yl}-5H,6H,7H-cyclopenta[d]pyrimidin-4-yl)(methyl)amino]acetamide], for which the pEC50 worked out at 8.3.

In turn, `CCNC(=O)CN(C)c1nc(-c2cc(OCC3(O)CCOCC3)ccn2)nc2c1CCC2` [Compound 447, N-ethyl-2-[(2-{4-[(4-hydroxyoxan-4-yl)methoxy]pyridin-2-yl}-5H,6H,7H-cyclopenta[d]pyrimidin-4-yl)(methyl)amino]acetamide] returned a pEC50 of 7.6.

As for `COC[C@@H](O)COc1ccnc(-c2nc3c(c(N(C)CC(=O)NC(C)C)n2)CCC3)c1` [Compound 448, 2-[(2-{4-[(2R)-2-hydroxy-3-methoxypropoxy]pyridin-2-yl}-5H,6H,7H-cyclopenta[d]pyrimidin-4-yl)(methyl)amino]-N-(propan-2-yl)acetamide], the pEC50 came out at 7.4.

On to `CC(C)NC(=O)CN(C)c1nc(-c2cc(OCC(C)(C)O)ccn2)nc2c1CC(C)(C)C2` [Compound 449, 2-({2-[4-(2-hydroxy-2-methylpropoxy)pyridin-2-yl]-6,6-dimethyl-5H,6H,7H-cyclopenta[d]pyrimidin-4-yl}(methyl)amino)-N-(propan-2-yl)acetamide], for which the pEC50 stood at 7.2.

`CC(C)NC(=O)CN(C)c1nc(-c2cc(OCC(C)(C)O)ccn2)nc2c1CCC2(C)C` [Compound 450, 2-({2-[4-(2-hydroxy-2-methylpropoxy)pyridin-2-yl]-7,7-dimethyl-5H,6H,7H-cyclopenta[d]pyrimidin-4-yl}(methyl)amino)-N-(propan-2-yl)acetamide] had a pEC50 of 6.4.

As to `CN(CC(=O)NC(C)(C)C)c1nc(-c2cc(OC[C@@H](O)CO)ccn2)nc2c1CCC2` [Compound 451, N-tert-butyl-2-[(2-{4-[(2S)-2,3-dihydroxypropoxy]pyridin-2-yl}-5H,6H,7H-cyclopenta[d]pyrimidin-4-yl)(methyl)amino]acetamide], the pEC50 came out at 7.8.

Regarding `CN(CC(=O)NC(C)(C)C)c1nc(-c2cc(OC[C@H](O)CF)ccn2)nc2c1CCC2` [Compound 452, N-tert-butyl-2-[(2-{4-[(2S)-3-fluoro-2-hydroxypropoxy]pyridin-2-yl}-5H,6H,7H-cyclopenta[d]pyrimidin-4-yl)(methyl)amino]acetamide], the pEC50 is recorded as 8.4.

On to `CC(C)NC(=O)[C@@H](C)N(C)c1nc(-c2cc(OCC(C)(C)O)ccn2)nc2c1CCC2` [Compound 453, (2R)-2-({2-[4-(2-hydroxy-2-methylpropoxy)pyridin-2-yl]-5H,6H,7H-cyclopenta[d]pyrimidin-4-yl}(methyl)amino)-N-(propan-2-yl)propanamide], for which the pEC50 is 8.1.

In turn, `CN(C)CCOc1ccnc(-c2nc3c(c(N(C)CC(=O)NC(C)(C)C)n2)CC(C)(C)C3)c1` [Compound 454, N-tert-butyl-2-[(2-{4-[2-(dimethylamino)ethoxy]pyridin-2-yl}-6,6-dimethyl-5H,6H,7H-cyclopenta[d]pyrimidin-4-yl)(methyl)amino]acetamide] showed a pEC50 of 7.9.

`CC(C)NC(=O)CN(C)c1nc(-c2cc(OCCN(C)C)ccn2)nc2c1CC(C)(C)C2` [Compound 455, 2-[(2-{4-[2-(dimethylamino)ethoxy]pyridin-2-yl}-6,6-dimethyl-5H,6H,7H-cyclopenta[d]pyrimidin-4-yl)(methyl)amino]-N-(propan-2-yl)acetamide] displayed a pEC50 of 7.7.

In the case of `CC(C)NC(=O)CN(C)c1nc(-c2cc(OCCN(C)C)ccn2)nc2c1CCC2(C)C` [Compound 456, 2-[(2-{4-[2-(dimethylamino)ethoxy]pyridin-2-yl}-7,7-dimethyl-5H,6H,7H-cyclopenta[d]pyrimidin-4-yl)(methyl)amino]-N-(propan-2-yl)acetamide], the pEC50 came to 6.2.

`CN(C)CCOc1ccnc(-c2nc(N(C)CC(=O)NC(C)(C)C)c3c(n2)C(C)(C)CC3)c1` [Compound 457, N-tert-butyl-2-[(2-{4-[2-(dimethylamino)ethoxy]pyridin-2-yl}-7,7-dimethyl-5H,6H,7H-cyclopenta[d]pyrimidin-4-yl)(methyl)amino]acetamide] showed a pEC50 of 6.3. This pEC50 and that of the compound before are within 0.2 log units of each other.

In the case of `COc1ccnc(-c2nc3c(c(N(C)CC(=O)N[C@H](C)CO)n2)CCC3)c1` [Compound 458, N-[(2R)-1-hydroxypropan-2-yl]-2-{[2-(4-methoxypyridin-2-yl)-5H,6H,7H-cyclopenta[d]pyrimidin-4-yl](methyl)amino}acetamidede], the pEC50 turned out to be 7.3.

`COc1ccnc(-c2nc3c(c(N(C)CC(=O)N[C@@H](C)CO)n2)CCC3)c1` [Compound 459, N-[(2S)-1-hydroxypropan-2-yl]-2-{[2-(4-methoxypyridin-2-yl)-5H,6H,7H-cyclopenta[d]pyrimidin-4-yl](methyl)amino}acetamide] yielded a pEC50 of 7.3.

Compound `CN(CC(=O)NC(C)(C)C)c1nc(-c2cc(OCCN3CCOCC3)ccn2)nc2c1CCC2` [Compound 460, N-tert-butyl-2-[methyl(2-{4-[2-(morpholin-4-yl)ethoxy]pyridin-2-yl}-5H,6H,7H-cyclopenta[d]pyrimidin-4-yl)amino]acetamide] displayed a pEC50 of 8.2.

On to `CN(CC(=O)NC(C)(C)C)c1nc(-c2cc(OCCN3C[C@@H]4C[C@H]3CO4)ccn2)nc2c1CCC2` [Compound 461, N-tert-butyl-2-{methyl[2-(4-{2-[(1S,4S)-2-oxa-5-azabicyclo[2.2.1]heptan-5-yl]ethoxy}pyridin-2-yl)-5H,6H,7H-cyclopenta[d]pyrimidin-4-yl]amino}acetamide], for which the pEC50 is 8.3.

In turn, `CN(CC(=O)NC(C)(C)C)c1nc(-c2cc(OCCN3C[C@H]4C[C@@H]3CO4)ccn2)nc2c1CCC2` [Compound 462, N-tert-butyl-2-{methyl[2-(4-{2-[(1R,4R)-2-oxa-5-azabicyclo[2.2.1]heptan-5-yl]ethoxy}pyridin-2-yl)-5H,6H,7H-cyclopenta[d]pyrimidin-4-yl]amino}acetamide] yielded a pEC50 of 8.4.

Take `CO[C@@H]1CCN(CCOc2ccnc(-c3nc4c(c(N(C)CC(=O)NC(C)(C)C)n3)CCC4)c2)C1` [Compound 463, N-tert-butyl-2-{[2-(4-{2-[(3R)-3-methoxypyrrolidin-1-yl]ethoxy}pyridin-2-yl)-5H,6H,7H-cyclopenta[d]pyrimidin-4-yl](methyl)amino}acetamide]: the pEC50 is recorded as 8.1.

As for `CO[C@H]1CCN(CCOc2ccnc(-c3nc4c(c(N(C)CC(=O)NC(C)(C)C)n3)CCC4)c2)C1` [Compound 464, N-tert-butyl-2-{[2-(4-{2-[(3S)-3-methoxypyrrolidin-1-yl]ethoxy}pyridin-2-yl)-5H,6H,7H-cyclopenta[d]pyrimidin-4-yl](methyl)amino}acetamide], the pEC50 was 8.0.

In the case of `CN(CC(=O)NC(C)(C)C)c1nc(-c2cc(OCCn3ccnc3)ccn2)nc2c1CCC2` [Compound 465, N-tert-butyl-2-[(2-{4-[2-(1H-imidazol-1-yl)ethoxy]pyridin-2-yl}-5H,6H,7H-cyclopenta[d]pyrimidin-4-yl)(methyl)amino]acetamide], the pEC50 stood at 8.3.

`CN(CC(=O)NC(C)(C)C)c1nc(-c2cc(OCCn3cnnn3)ccn2)nc2c1CCC2` [Compound 466, N-tert-butyl-2-[methyl(2-{4-[2-(1H-1,2,3,4-tetrazol-1-yl)ethoxy]pyridin-2-yl}-5H,6H,7H-cyclopenta[d]pyrimidin-4-yl)amino]acetamide] gave a pEC50 of 7.9.
